Assay results as given in paper PMC11219871, “Epigenetic-based differentiation therapy for Acute Myeloid Leukemia” (Nature Communications, 2024).
“And” between values parts separate entries of the source, which are not always exact repeats. Equal values may be shown once.

Key:
ML-2 = assay: Acetylome analysis (Acetyl-K enrichment, LC-MS/MS); format: cell-based, human
Method: Cellular pellets were lysed for 15 min at 95 °C in 4% SDS, 100 mM Hepes/NaOH pH 8.0, containing 5 mM sodium butyrate and 5 mM Nicotinamide. After cooling down, lysates were incubated at 25 °C with 10 units of DNAse (Benzonase, Merk) and sonicated for 15 min in a Bioruptor for DNA shearing. Protein concentration was determined using microBCA, using BSA as standard. Samples were digested using on-bead protein aggregation capture (PAC) with ReSyn Biosciences MagReSyn® Hydoxyl microparticles (ratio Protein/Beads 1:5) in an automated King Fisher instrument (Thermo). Proteins were digested for 16 h at 37 C with LysC/Trypsin mix at a protein: enzyme ratio of 1:100 in 50 mM TEAB pH 8.0 (Trypsin Sequence grade, Sigma; LysC, Wako). The resulting peptides were speed-vac dried and dissolved in 100 µL of 200 mM HEPES pH 8.5.
Peptides (500 µg) were labeled with Thermo Scientific TMTpro 18plex™ Isobaric reagents for 1 h at 25 C. Reaction was quenched by adding 5% hydroxylamine for 15 min. Samples were pooled at a 1:1 ratio based on the total peptide amount, determined by comparing overall signal intensities on a regular LC-MS/MS run. The final mixture was desalted using a 500 mg Sep-Pak C18t cartridge (Waters) and dried prior to high pH reverse phase HPLC pre-fractionation.
Labeled peptides were fractionated offline through a high pH reverse phase chromatography using an Ultimate 3000 HPLC system equipped with a sample collector. Briefly, peptides were dissolved in 1200 µL of Buffer A (10 mM NH4OH) and loaded onto a XBridge BEH130 C18 column (3.5 µm, 250 mm length and 3.5 mm ID, Waters). Buffer B was composed of 10 mM NH4OH in 90% CH3CN. The following gradient was used at a flow rate of 500 µL/min: 0-50 min 0-25% B, 50-56 min 25-60% B, 56-57 min 60-90% B. One-minute fractions (500 µL) from […] were collected and neutralized with 10% formic acid. Based on the UV absorbance at 280 nm, 95% of the volume of 40 fractions was pooled in 5 fractions for Acetyl-Lysine enrichment. The 5% of these fractions was kept for proteome analysis. Pooled fractions were snap-frozen and lyophilized.
Lyophilized peptides (1.5 mg) from each pool were immuno-affinity purified with the PTMScan HS Acetyl-Lysine Motif (Ac−K) kit (Cell Signaling Technology). For each pool, three consecutive immuno-purifications (IPs) were performed using the manufacturer’s protocol in an automated King Fisher instrument (Thermo). Elution of purified peptides was performed in two consecutive steps of 50 μl of 0.15% TFA. Samples were desalted with C18 stage tips and eluates were vacuum dried and resuspended in 0.1% formic acid for subsequent analysis by LC−MS/MS.
LC-MS/MS was done by coupling an UltiMate 3000 RSLCnano LC system to an Orbitrap Exploris 480 mass spectrometer (Thermo Fisher Scientific). Samples were loaded into a trap column (Acclaim™ PepMap™ 100 C18 LC Columns 5 µm, 20 mm length) for 3 min at a flow rate of 10 µL/min in 0.1% FA. Peptides were then transferred to an EASY-Spray PepMap RSLC C18 column (Thermo) (2 µm, 75 µm x 50 cm) operated at 45 °C and separated using a 90 min effective gradient (buffer A: 0.1% FA; buffer B: 100% ACN, 0.1% FA) at a flow rate of 250 nL/min. The gradient used was, from 4% to 6% of buffer B the first 2 min, from 6% to 33% B the next 58 min, plus 10 additional minutes at 98% B.
The mass spectrometer was operated in a data-dependent mode, with an automatic switch between MS and MS/MS scans using a top 15 method. (Intensity threshold ≥ 1e4, dynamic exclusion of 20 sec and excluding charges unassigned, +1 and ≥ +7). MS spectra were acquired from 350 to 1500 m/z with a resolution of 60,000 FMHW (200 m/z). Ion peptides were isolated using a 0.7 Th window and fragmented using higher-energy collisional dissociation (HCD) with a normalized collision energy NCE of 36. MS/MS spectra were acquired with a fixed first mass of 120 m/z and a resolution of 45,000 FMHW (200 m/z). […]

THP-1 = assay: Differentiation assay, CD11b / annexin-V flow cytometry; format: cell-based; details: THP-1 cell line; replicates 1-3 (Figure 2A)
Method: (§1) Next, the cells were washed twice with phosphate-buffered saline (PBS) and resuspended in 1X Binding Buffer at a concentration of 1 × 10^6 cells/mL. An 8-µL aliquot of APC-CD11b (BD Pharmingen, Franklin Lakes, NJ, USA) and 1 µL of FITC annexin-V (AV) (BD Pharmingen, Franklin Lakes, NJ, USA) antibodies were added and incubated for 15 min at room temperature in the dark. Finally, after the addition of 400 µL of 1X Binding Buffer to each tube, samples were collected on a BD FACSCanto flow cytometer (Becton Dickinson, San Jose, CA, USA) and analyzed using FlowJo software.

NB-4 = assay: as above; format: cell-based; details: NB4 cell line; replicates 1-3 (Figure 2A)
Method: as §1

GF-D8 = assay: as above; format: cell-based; details: GF-D8 cell line; replicates 1-3 (Figure 2A);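 further: daily treatment at a GI50-based fraction of each compound's GI50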
Method: as §1

KASUMI-1 = assay: as above; format: cell-based; details: KASUMI-1 cell line; replicates 1-3 (Figure 2A);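 further: daily treatment at a GI50-based fraction of each compound's GI50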
Method: as §1

M-O7e = assay: as above; format: cell-based; details: MO7e cell line; replicates 1-3 (Figure 2A);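 further: daily treatment at a GI50-based fraction of each compound's GI50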
Method: as §1

UT-7 = assay: as above; format: cell-based; details: UT7 cell line; replicates 1-3 (Figure 2A)
Method: as §1

HEL = assay: as above; format: cell-based; details: HEL cell line; replicates 1-3 (Figure 2A)
Method: as §1

OCI-AML2 = assay: as above; format: cell-based; details: OCI-AML-2 cell line; replicates 1-3 (Figure 2A)
Method: as §1

[1] = ML-2, first (superseded) acetylome experiment, peer review file
[2] = distribution of acetylated sites in the acetylated proteins (Fig 4D)

Question: With `COc1cc2nc(-c3cc(C)oc3C)cc(NCC3CCN(c4ncc(C(=O)NO)cn4)CC3)c2cc1OC` [CM-1758, 2-[4-[[[2-(2,5-dimethyl-3-furyl)-6,7-dimethoxy-4-quinolyl]amino]methyl] -1-piperidyl]pyrimidine-5-carbohydroxamic acid] as the molecule, how does the “Number of proteins with >5 Acetyl-K sites per protein” value (ML-2) read?
Answer: The value was 14.

Question: What about the “Acetyl-K sites regulated, Number, Histone proteins” value (ML-2; Fig 4G) of the same molecule?
Answer: Its value is 55.

Question: What about the “Acetyl-K sites regulated, Number, Non-histone proteins” value (ML-2; Fig 4G) of the same molecule?
Answer: Its value is 681.

Question: What about the “Acetyl-K sites regulated, Percentages, Histone proteins” value (ML-2; Fig 4G) of the same molecule?
Answer: The value was 7.5.

Question: And the “Acetyl-K sites regulated, Percentages, Non-histone proteins” value (ML-2; Fig 4G)?
Answer: Its value is 92.5.

Question: And the “Acetyl-K sites: Down-regulated, %” value (ML-2; ML-2 (Fig 4C))?
Answer: The value was 10.9%.

Question: And the “Acetyl-K sites: Down-regulated, Number” value (ML-2; ML-2 (Fig 4C))?
Answer: The value was 395.

Question: And the “Acetyl-K sites: Non-regulated, %” value (ML-2; ML-2 (Fig 4C))?
Answer: The value was 79.7%.

Question: And the “Acetyl-K sites: Non-regulated, Number” value (ML-2; ML-2 (Fig 4C))?
Answer: Its value is 2882.

Question: And the “Acetyl-K sites: Quantified (total number)” value (ML-2; ML-2 (Fig 4C))?
Answer: The value was 3618.

Question: And the “Acetyl-K sites: Regulated, %” value (ML-2; ML-2 (Fig 4C))?
Answer: Its value is 20.3%.

Question: And the “Acetyl-K sites: Regulated, Number” value (ML-2; ML-2 (Fig 4C))?
Answer: Its value is 736.

Question: What about the “Acetyl-K sites: Up-regulated, %” value (ML-2; ML-2 (Fig 4C)) of the same molecule?
Answer: The value was 9.4%.

Question: What about the “Acetyl-K sites: Up-regulated, Number” value (ML-2; ML-2 (Fig 4C)) of the same molecule?
Answer: Its value is 341.

Question: And the “fraction of regulated acetylation sites upregulated” value (ML-2; ML-2, 25% GI50, 12 h)?
Answer: The value was 46.3%.

Question: What about the “Acetyl-K sites, Down-regulated” value (ML-2; ML-2, 25% GI50, 12 h, Fig. 4C) of the same molecule?
Answer: The value was 395.

Question: What about the “Acetyl-K sites, Up-regulated” value (ML-2; ML-2, 25% GI50, 12 h, Fig. 4C) of the same molecule?
Answer: Its value is 341.

Question: What about the “regulated Acetyl-K sites in Histone proteins” value (ML-2; ML-2, 25% GI50, 12 h, Fig. 4G) of the same molecule?
Answer: Its value is 55.

Question: What about the “regulated Acetyl-K sites in Non-histone proteins” value (ML-2; ML-2, 25% GI50, 12 h, Fig. 4G) of the same molecule?
Answer: The value was 681.

Question: And the “percentage of Acetyl-K sites regulated” value (ML-2; ML-2, 25% GI50, 12 h, of 3618 quantified)?
Answer: Its value is 20.3%.

Question: And the “acetyl K-sites regulated specifically by the compound” value (ML-2; [1])?
Answer: The value was 80.

Question: And the “fraction of regulated acetylation sites upregulated” value (ML-2; [1])?
Answer: Its value is 61.2%.

Question: And the “Number of proteins with 1 Acetyl-K site per protein” value (ML-2; [2])?
Answer: Its value is 381.

Question: What about the “Number of proteins with 2 Acetyl-K sites per protein” value (ML-2; [2]) of the same molecule?
Answer: Its value is 73.

Question: What about the “Number of proteins with 3 Acetyl-K sites per protein” value (ML-2; [2]) of the same molecule?
Answer: The value was 31.

Question: What about the “Number of proteins with 4 Acetyl-K sites per protein” value (ML-2; [2]) of the same molecule?
Answer: The value was 6.

Question: And the “CD11b (%)” value (THP-1)?
Answer: The value was 90.5% and 96.2% and 93.2%.

Question: And the “CD11b (%)” value (NB-4)?
Answer: Its value is 41.82% and 48.2% and 36.4%.

Question: And the “CD11b (%)” value (GF-D8)?
Answer: Its value is 27.3% and 20% and 28.6%.

Question: And the “CD11b (%)” value (KASUMI-1)?
Answer: Its value is 24.2% and 19.4% and 12.5%.

Question: What about the “CD11b (%)” value (M-O7e) of the same molecule?
Answer: The value was 17.02% and 15.8% and 12.9%.

Question: And the “CD11b (%)” value (UT-7)?
Answer: Its value is 21.8% and 25.6% and 23.1%.

Question: What about the “CD11b (%)” value (HEL) of the same molecule?
Answer: The value was 14.82% and 10.2% and 20.4%.

Question: What about the “CD11b (%)” value (OCI-AML2) of the same molecule?
Answer: Its value is 39.01% and 39.3% and 37.1%.
